Results: US20170258871A1, “COMBINED USE OF A TRKA INHIBITOR AND AN EPHA2 INHIBITOR FOR USING IN THE TREATMENT OF SOLID CANCERS, AND METHOD FOR THE PROGNOSIS OF SURVIVAL OF A PATIENT WHO HAS A SOLID CANCER” (UNIVERSITE DES SCIENCES ET TECHNOLOGIES DE LILLE, priority 2014, published 2017)

Columns and labels:
Src = experiment: Western blot of Src phosphorylation in MDA-MB-231 cells; type: cell-based
Experimental: FIG. 8: A study of the role of TrkA and EphA2 in the activation of proteins Akt and Src. Cells MDA-MB-231 were respectively treated with a TrkA inhibitor (K252a), an anti-EphA2 siRNA (siEphA2), an inhibitor of PI3-K (LY294002) and an inhibitor of Src (SKI-1).
A and D. Cells MDA-MB-231 HA-TrkA were treated with proNGF N.C. […] The phosphorylation of Akt and Src was determined by using phospho-specific antibodies. The equal charge was verified using Akt and Src antibodies.
C and F. The phosphorylation of Akt and Src was determined in the total lysates coming from cells MDA-MB-231 transfected with siEphA2 and treated for 30 minutes with proNGF N.C. (C) or NGF (F).
After treatment, the cells were lysed (lysis buffer: 40 mM HEPES pH 7.5; 1 mM EDTA pH 8.0; 120 mM NaCl; 10 mM NaPPi; 50 mM NaF; 1.5 mM Na3VO4; 1% Triton X 100; 0.1% SDS; 1 mM PMSF; 10% glycerol and 1/100 th of protease inhibitor cocktail (Sigma) (20 min; 4° C.)). The lysates were recovered and clarified by centrifugation (12,000 g; 10 min; 4° C.). The supernatant was then stored at −80° C. until use. The protein extracts were diluted to 2 μg·μL−1 in a Laemmli 1× buffer (7 min; 100° C.) then deposited and separated on SDS-PAGE (concentration gel 3.6% acrylamide and separation gel 7.5% to 10% acrylamide (thickness 1 mm); 180 V; 10 min then 200 V constant; until output of the migration front). The proteins separated by SDS-PAGE were transferred according to the semi-dry transfer method (buffer: 48 mM Tris base, 39 mM glycine, 1.64 mM SDS, 20% methanol (v/v); 14 V; 15 min per gel) or liquid (buffer: 25 mM Tris base and 192 mM glycine; 15% methanol (v/v); 100 V; 30 min) on nitrocellulose membranes (0.45 μm; Whatman; Germany) or PVDF (0.45 μm; Immobilon P; Millipore; France). The PVDF membrane was “activated” beforehand (methanol; 10 min; 20° C.). The membranes were then saturated (TBS-T; 5% BSA; 1 h; 20° C.) then incubated (16 h; 4° C.) with the chosen primary antibody. […] The membranes were placed in an image analyser (LAS 4000; Fuji) connected to a computer which allowed image generation (software Image Reader LAS 4000).
The antibody against EphA2 was sc-924 (Santa Cruz), the antibody against sortilin was BD Bioscience 612101, the antibody against TrkA was sc 14024 (Santa Cruz), the antibody against HA was MMS-101R (Covance), the antibody against Akt was Cell Signaling 4691, the antibody against phospho-Akt (Ser 473) was Cell Signaling 9271, the antibody against Src was Cell Signaling 2109 (WB), the antibody against PhosphoSrc (Tyr416) was Cell Signaling 2105 and the antibody against actin was Sigma A2066.
Proteins Akt and Src were both involved in the pro-invasive effect of proNGF. In order to identify the role of TrkA and EphA2 in the activation of proteins Akt and Src, cells MDA-MB-231 were treated respectively with a TrkA inhibitor (K252a), an anti-EphA2 siRNA (siEphA2) the sequence of which is presented in table 1, a PI3-K inhibitor (LY294002) (the activation of Akt in effect underlies that of PI3-K) and an inhibitor of Src (SKI-1).

PC3 cells = experiment: In vitro invasion test (Boyden chamber), PC3; type: cell-based
Experimental: (0.5 nM) for a period of 20 hours. The untreated cells represent the control and determine a base invasion of 100%.
FIG. 3: A study of the involvement of EphA2 on the pro-invasive effects of proNGF. The invasion test is carried out on cells MDA-MB-231 (A), DU145 (B) and PC3 (C) transfected with a siRNA against EphA2 (siEphA2), TrkA (siTrkA) or a random siRNA (siCTRL). The transfected siCTRL cells are treated to provide a control and determine a base invasion of 100% (white column). […] The efficacy of the siRNA is measured by the western blot method through the use of specific antibodies against TrkA, EphA2, and actin (load control).
The Boyden Chambers (Transwell®; BD Biosciences; France) were recovered from a biological matrix (type 1 collagen from rats diluted to 400 μg·mL-1 in EMEM-0.1% FCS medium; Millipore). The cells were then seeded with 100,000 cells/well on PET membranes (polyethylene terephtalate; dia.: 10.5 mm; porosity: 8 μm) of Boyden Chambers and held in an EMEM-0.1% FCS medium. […] (0.5 nM) in the lower part. […] The number of cells was estimated after staining with Hoechst 33 258 (1 mM; 30 min; 20° C.) by counting the nuclei thereof using fluorescence microscopy on a total of 5 five randomly chosen fields (lens 10×; λ-excitation: 345 nm; λ-emission: 478 nm; Eclipse Ti) using the ImageJ software. […]

For “siEphA2: siRNA against EphA2, GCAAGGAAGUGGUACUGCUGGACUU (SEQ ID NO: 1) (listed as RNA, chemistry not given here)”, the “effect on Src phosphorylation induced by NGF” value (Src; NGF 30 min, 10 nM K252a or siEphA2) was “reduces only the base activation of phospho-Akt and phospho-Src but not the phosphorylation induced by the NGF”, the “effect on Src activation induced by proNGF” value (Src; proNGF N.C. 30 min, 10 nM K252a, 15 μM LY294002, 50 nM SKI-1 or siEphA2) was “reduced the phosphorylation of Src” and the “invasion induced by proNGF in siRNA-transfected cells” value (PC3 cells; siRNA transfection vs siCTRL, proNGF) was “abolished the invasion induced by proNGF”.

In the case of “NGF: Nerve Growth Factor; recombinant human β NGF supplied by Scil Proteins”, the “activation (phosphorylation) of Src by the ligand” value (Src; MDA-MB-231 HA-TrkA, 30 min) is reported as “increased” and the “cell invasion under growth factor” value (PC3 cells; NGF 16 nM or proNGF N.C. 0.5 nM, untreated cells = 100%) is reported as “increased cell invasion”.
